Results taken from patent US20040186166A1, “Cannabinoid analogs as peroxisome proliferator activated nuclear receptor gamma activators” (priority 2002, published 2004).

How the values were obtained:
PPARα = biological target: T1, PPARα (Mus musculus, UniProt P23204); assay: Partial protease (trypsin) digestion assay, PPARα; assay type: binding; details: 2, 20 and 100 μM AJA
T1 construct: expressed in transfected cells; host or cells: HEK293 / HEK293T
T1 sequence (P23204 1-468): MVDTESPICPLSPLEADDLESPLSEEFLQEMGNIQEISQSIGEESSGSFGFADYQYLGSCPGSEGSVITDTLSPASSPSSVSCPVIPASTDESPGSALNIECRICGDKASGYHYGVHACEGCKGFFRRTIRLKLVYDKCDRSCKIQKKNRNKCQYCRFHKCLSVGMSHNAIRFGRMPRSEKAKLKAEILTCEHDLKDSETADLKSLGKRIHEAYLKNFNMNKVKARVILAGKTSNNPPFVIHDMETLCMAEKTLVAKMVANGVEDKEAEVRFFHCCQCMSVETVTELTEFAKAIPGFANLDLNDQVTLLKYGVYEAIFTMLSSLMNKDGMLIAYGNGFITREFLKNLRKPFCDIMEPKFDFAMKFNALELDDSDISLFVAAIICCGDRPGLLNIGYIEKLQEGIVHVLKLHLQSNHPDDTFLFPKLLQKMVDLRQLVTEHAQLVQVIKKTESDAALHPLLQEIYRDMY
Method: Partial protease digestion was carried out as described by Leng et. al. (J Steroid Biochem Mol Biol 46:643-61, 1993). PPAR proteins were made by in vitro transcription/translation reactions in reticulocyte lysate according to the manufacture's instructions (Promega). AJA, GW347845, or vehicle alone was incubated with the 35S-labeled PPARs at room temperature for one hour before trypsin digestion. Reactions were stopped by boiling in SDS-containing sample buffer, and lysates were subjected to SDS-PAGE and autoradiography.
The PPAR proteins were synthesized and labeled with ^35S-methionine in reticulocyte lysate and incubated with AJA, GW347845, or vehicle alone at room temperature for one hour before trypsin digestion. The reactions were terminated by boiling in SDS-containing protein sample buffer. The proteolytic patterns of PPAR proteins were then analyzed by SDS-PAGE and autoradiography, and compared with vehicle-treated control samples.
The AJA concentrations required to protect PPARγ from trypsin digestion were further measured.

human PPARγ = biological target: T2, human PPARγ (Homo sapiens, UniProt P37231); assay: Gal4-dependent MH100-Luc reporter, human PPARγ; assay type: cell-based; details: compared with mouse PPARγ
T2 construct: The Gal4-hPPAR LBD constructs were obtained from GlaxoSmithKline; host or cells: HEK293
T2 sequence (P37231 238-503 limits assumed): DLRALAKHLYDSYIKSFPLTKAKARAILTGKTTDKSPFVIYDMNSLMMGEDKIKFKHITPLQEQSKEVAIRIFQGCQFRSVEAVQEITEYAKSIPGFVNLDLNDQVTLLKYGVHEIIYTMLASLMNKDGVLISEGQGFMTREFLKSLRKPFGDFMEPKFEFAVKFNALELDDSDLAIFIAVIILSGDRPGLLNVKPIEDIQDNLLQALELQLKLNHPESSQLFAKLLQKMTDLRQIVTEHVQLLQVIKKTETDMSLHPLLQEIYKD
Method: (§1) The pGEX-DRIP205 (527˜970) was obtained from the Sloan-Kettering Cancer Center. The Gal4-hPPAR LBD constructs were obtained from GlaxoSmithKline, Research Triangle Park, NC. The IL8-Luciferase reporter was obtained from Celgene, San Diego, Calif. The plasmids mPPARα, mPPARγ1, mPPARδ , and hRXRα were in the pCMX vector (Umesono et al., Cell 65:1255-1266, 1991).
(§2) For PPARγ activation assay, HEK293 cells were plated in 12-well cell culture plates and maintained in Dulbecco's modified Eagle's medium (DMEM) supplemented with 10% fetal bovine serum (FBS) at 37° C. under 5% CO2. […] The average normalized luciferase activity was determined via triplicate experiments. […]
(§3) To further confirm activation of PPARγ by AJA, and also to determine PPARγ species specificity, the ability of AJA to activate the chimeric Gal4-DBD/PPAR fusion proteins on a Gal4-dependent MH100-Luc reporter was assessed (FIG. 4A). The PPARs were expressed as Gal4 DBD fusion proteins, which bind to the UAS promoter containing 4 copies of a synthetic Gal4 binding site upstream of the minimal thymidine kinase (TK) promoter. […] Transfected cells were treated with increasing concentrations of AJA from 10-60 μM and the luciferase activities were determined in triplicate experiments. […]

human PPARδ = biological target: T3, human PPARδ (Homo sapiens, UniProt Q03181); assay: Gal4-dependent MH100-Luc reporter, human PPARδ; assay type: cell-based
T3 construct: The Gal4-hPPAR LBD constructs were obtained from GlaxoSmithKline; host or cells: HEK293
T3 sequence (Q03181 211-439 limits assumed): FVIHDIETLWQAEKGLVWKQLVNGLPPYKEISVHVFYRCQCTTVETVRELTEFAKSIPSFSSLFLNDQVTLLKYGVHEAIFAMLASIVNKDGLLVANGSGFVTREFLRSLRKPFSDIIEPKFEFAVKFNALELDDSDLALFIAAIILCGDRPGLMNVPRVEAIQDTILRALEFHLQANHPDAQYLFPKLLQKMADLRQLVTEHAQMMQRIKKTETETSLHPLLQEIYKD
Method: as §1, §2, §3

[1] = adjuvant-induced poly-arthritis, rats; cited from earlier work

**Q.** With CCCCCCC(C)(C)c1cc(O)c2c(c1)OC(C)(C)[C@@H]1CC=C(C(=O)O)C[C@@H]21 [AJA, dimethylheptyl-THC-11-oic acid] as the compound, how does the “proteinase sensitivity of PPARα” value (PPARα) read?
**A.** The value was “did not affect the proteinase sensitivity”.

**Q.** And the “activation of human PPARγ” value (human PPARγ)?
**A.** The value was “activates human PPARγ as efficiently as mouse PPARγ”.

**Q.** And the “activation of human PPARδ” value (human PPARδ)?
**A.** The value was “did not activate”.

**Q.** And the chronic joint inflammation [1]?
**A.** Its chronic joint inflammation is “suppress”.
